The record followed here is PMC4913548 (OncoTargets and therapy, 2016).

By EC50 is commonly meant the midpoint of the concentration-response curve.

In the test the target is estrogen receptor α (Homo sapiens, UniProt P03372). Description: ERE-Luc/catD-Luc reporter assay in SH-SY5Y cells. The format is cell-based. (In a reporter assay the amount or activity of a reporter protein is the signal.)
Chain of estrogen receptor α (P03372 whole entry): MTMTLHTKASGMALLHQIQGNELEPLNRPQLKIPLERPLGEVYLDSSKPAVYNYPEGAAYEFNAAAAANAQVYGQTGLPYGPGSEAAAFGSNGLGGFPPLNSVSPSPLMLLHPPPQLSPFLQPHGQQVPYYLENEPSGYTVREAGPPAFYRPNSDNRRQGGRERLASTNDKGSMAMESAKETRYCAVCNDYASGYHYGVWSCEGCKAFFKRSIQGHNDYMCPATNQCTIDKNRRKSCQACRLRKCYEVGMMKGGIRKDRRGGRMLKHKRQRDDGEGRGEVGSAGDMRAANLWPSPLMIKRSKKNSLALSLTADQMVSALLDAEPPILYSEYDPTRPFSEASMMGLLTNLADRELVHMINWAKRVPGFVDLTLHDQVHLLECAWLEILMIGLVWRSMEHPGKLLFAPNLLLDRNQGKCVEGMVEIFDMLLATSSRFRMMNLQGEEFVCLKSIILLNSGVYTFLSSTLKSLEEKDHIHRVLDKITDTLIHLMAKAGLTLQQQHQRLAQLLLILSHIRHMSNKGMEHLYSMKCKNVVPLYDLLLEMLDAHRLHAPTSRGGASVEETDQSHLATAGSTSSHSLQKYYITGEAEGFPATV

Regarding nonylphenol, the EC50 stood at 580 ± 250 nM.
